Measured values as given in patent US4931443A, “Piperazine compound and pharmaceutical use thereof” (Yoshitomi Pharmaceutical Industries, Ltd., priority 1986, dated 1990).

Key:
[1] = biological target: T1, serotonin-1 receptor (Rattus norvegicus, UniProt P19327); assay: Affinity for serotonin-1 receptor: 3H-8-OH-DPAT binding assay; conditions: rat hippocampus synaptosomal membranes; 3H-8-OH-DPAT 0.2 nM; pH 7.4, 37° C., 10 min
T1 sequence (P19327 1-422): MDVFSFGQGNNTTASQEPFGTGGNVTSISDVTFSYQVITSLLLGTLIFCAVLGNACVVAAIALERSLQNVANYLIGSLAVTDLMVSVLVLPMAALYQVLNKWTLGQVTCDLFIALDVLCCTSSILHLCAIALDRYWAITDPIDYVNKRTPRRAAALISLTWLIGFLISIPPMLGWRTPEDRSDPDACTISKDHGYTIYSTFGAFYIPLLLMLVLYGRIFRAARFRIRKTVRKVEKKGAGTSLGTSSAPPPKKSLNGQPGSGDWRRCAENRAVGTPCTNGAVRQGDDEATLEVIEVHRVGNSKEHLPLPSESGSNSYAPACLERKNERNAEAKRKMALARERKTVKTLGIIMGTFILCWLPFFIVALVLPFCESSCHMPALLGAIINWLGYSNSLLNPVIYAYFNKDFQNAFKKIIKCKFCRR
Experimental: (§1) Experiment 3 Affinity for serotonin receptor
(1) Affinity for serotonin-1 receptor: ^3 H-8-hydroxy-2-(dipropylamino)tetralin(^3 H-8-OH-DPAT) binding assay
Preparation of synaptosomal membranes and ^3 H-8-OH-DPAT binding assay were performed according to the method of Hall et al(Journal of Neurochemistry, vol. 44, p. 1685, 1985).
Rat hyppocampus which was maintained in a freezed state was homogenized in 40-fold volumes of ice-cold 50 mM Tris-HCl buffer (pH 7.4) and centrifugated at 500 g for 10 minutes at 0° C. Further, the supernatant was centrifugated at 40,000 g for 20 minutes at 0° C. and the pellets thus obtained were homogenized in 40-fold volumes of the same buffer as mentioned above, and then incubated at 37° C. for 10 minutes. After incubation, the suspension was centrifugated at 40,000 g for 20 minutes at 0° C. The obtained pellets were washed by repeating twice the procedures of homogenization in the above-mentioned buffer and centrifugation. The suspension of synaptosomal membranes was prepared by homogenizing the pellets finally obtained in 60-fold volumes of 50 mM Tris-HCl buffer (pH 7.4) containing 1 mM manganese chloride.
To 900 μl of the membrane suspension were added 50 μl of ^3 H-8-OH-DPAT solution (final concentration: 0.2 nM), and 50 μl of the test compound solution or the solvent and the mixture was incubated at 37° C. for 10 minutes. After incubation, 5 ml of ice-cold 50 mM Tris-HCl buffer (pH 7.4) was added, and immediately thereafter, the mixture was filtered with suction through Whatman GF/B filter. The filter was washed twice with 5 ml of the same buffer as mentioned above and the radioactivity on the filter was measured by a liquid scintillation counter.

[2] = tested on: catalepsy; assay: Experiment 4 Cataleptogenic action; format: in vivo, female Wistar-strain rats; conditions: rats, index of extrapyramidal side effects
Experimental: (§2) Then, the cataleptogenic action of the compound of Example 15 was studied for the purpose of measuring the degree of the extrapyramidal side effect. […]
(§3) Experiment 4 Cataleptogenic action
(§4) Groups of 10 female Wistar-strain rats were used. Catalepsy was measured by the partly modified method of Simon et al (Journal of Pharmacy and Pharmacology, vol. 22, P. 546, 1970). The front paws of the rats were placed gently on a vertical grid (4 mm diameter, 9 cm height).
(§5) After the compound of Example 15 was orally administered, catalepsy was measured with the passage of time in 9 hours.

[3] = Experiment 4 Cataleptogenic action; format: in vivo, female Wistar-strain rats; conditions: rat, in vivo, po; orally; peak time of catalepsy within 9 hours; probit method
Experimental: as §2, §3, §4, §5

[4] = tested on: serotonin-induced head-twitch; assay: Experiment 2 Anti-serotonin action (head-twitch method in mice); format: in vivo, male dd-strain mice; conditions: Mus musculus, po; serotonin 40 μg/0.02 ml i.c.v. 1 h after compound; head-twitch counted 5 min; probit method
Experimental: Experiment 2 Anti-serotonin action (head-twitch method in mice)
Groups of 8-30 male dd-strain mice were used. The test compounds were orally administered and an hour later, 40 μg/0.02 ml of serotonin was intracerebroventricularly administered. Ten minutes thereafter, the numbers of head-twitch were measured for 5 minutes. The ED50 values calculated by the probit method considering the number of head-twitch induced by the administration of serotonin with less than once as the inhibitory action by the test compound.

[5] = biological target: T2, serotonin-2 receptor (Rattus norvegicus, UniProt P14842); assay: Affinity for serotonin-2 receptor: 3H-spiperone binding assay; conditions: rat cerebral cortex synaptosomal membranes; 3H-spiperone 0.5 nM; 37° C., 20 min
T2 construct: from tissue; host or cells: rat cerebral cortex, synaptosomal membranes
T2 sequence (P14842 whole entry): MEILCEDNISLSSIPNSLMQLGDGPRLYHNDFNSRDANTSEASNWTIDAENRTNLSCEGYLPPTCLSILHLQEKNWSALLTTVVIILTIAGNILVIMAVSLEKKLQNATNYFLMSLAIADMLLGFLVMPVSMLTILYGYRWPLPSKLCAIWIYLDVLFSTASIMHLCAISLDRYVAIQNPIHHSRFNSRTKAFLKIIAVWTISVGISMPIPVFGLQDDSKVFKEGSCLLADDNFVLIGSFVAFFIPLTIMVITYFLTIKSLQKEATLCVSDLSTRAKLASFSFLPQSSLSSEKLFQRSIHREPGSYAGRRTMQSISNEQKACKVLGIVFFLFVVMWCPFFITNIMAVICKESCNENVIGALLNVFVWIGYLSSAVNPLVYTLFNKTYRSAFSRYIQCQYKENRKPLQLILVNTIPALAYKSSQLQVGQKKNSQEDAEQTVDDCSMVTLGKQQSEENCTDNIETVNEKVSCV
Experimental: as §1
(2) Affinity for serotonin-2 receptor: ^3 H-spiperone bindig assay
The preparation of synaptosomal membranes and binding assay were performed according to the method of Peroutka and Snyder (Molecular Pharmacology, vol. 16, p. 687, 1979).
Rat cerebral cortex which was maintained in a freezed state was homogenized in 20-fold volumes of ice-cold 0.32 M sucrose and centrifugated at 1,000 g for 10 minutes at 0° C. The supernatant was centrifugated at 50,000 g for 15 minutes at 0° C. The obtained pellets were homogenized in 20-fold volumes of ice-cold 50 mM Tris-HCl buffer (pH 7.5). The mixture was incubated at 37° C. for 10 minutes, and further centrifugated at 50,000 g for 15 minutes at 0° C. The suspension of synaptosomal membrane was prepared by homogenizing the obtained pellets in 60-fold volumes of the buffer mentioned above containing 1.1 mM ascorbic acid, 4 mM calcium chloride and 10 μM pargyline.
To 900 μl of the suspension of synaptosomal membrane were added 50 μl of ^3 H-spiperone (final concentration : 0.5 nM) and 50 μl of the test compound solution or the solvent, and then incubated at 37° C. for 20 minutes. After the completion of incubation, 5 ml of ice-cold buffer as mentioned above was added. Immediately thereafter, the mixture was filtered with suction through Whatman GF/B filter. The filter was washed twice with 5 ml of the same buffer as mentioned above and the radioactivity on the filter was measured by a liquid scintillation counter.

[6] = tested on: apomorphine-induced motility; assay: Experiment 1 Anti-apomorphine action (motility, Varimex); format: in vivo, male dd-strain mice; conditions: Mus musculus, po; apomorphine 0.5 mg/kg s.c. 1 h after compound; motility 20 min; dose lowering motility of control by 50%
Experimental: Experiment 1 Anti-apomorphine action
Groups of 3 male dd-strain mice (4 groups/dose) were used. Test compounds were orally administered and an hour later, 0.5 mg/kg of apomorphine was subcutaneously administered. Immediately thereafter, motility was measured with the aid of Varimex (manufactured by Columbus Co.) for 20 minutes. The ED50 values, the dose of test compound required to lower the motility of the control group by 50%, were graphically calculated.

SMILES | Ki [1] [nM] | cataleptogenic action (in words) [2] | ED50 [3] [mg/kg] | ED50 [4] [mg/kg] | Ki [5] [nM] | ED50 [6] [mg/kg]
Cl.Cl.O=C1CCC(c2ccc(CCCCN3CCN(c4cccc(C(F)(F)F)c4)CC3)cc2)N1 (centres unmarked) [Example 15, 5-[4-(4-(4-(3-trifluoromethylphenyl)piperazin-1-yl)butyl)phenyl]pyrrolidin-2-one dihydrochloride] | 0.4 | very weak cataleptic action | 250 | 0.32 | 63 | 4.2
Cc1cccc(N2CCN(CCCCc3ccc(C4CCC(=O)N4)cc3)CC2)c1 (centres unmarked) [Example 1, 5-[4-(4-(4-(3-methylphenyl)piperazin-1-yl)butyl)phenyl]pyrrolidin-2-one] | 0.61 |  |  | 0.53 | 23 | 13
O=C1CCC(c2ccc(CCCCN3CCN(c4ccc(F)cc4)CC3)cc2)N1 (centres unmarked) [Example 6, 5-[4-(4-(4-(4-fluorophenyl)piperazin-1-yl)butyl)phenyl]pyrrolidin-2-one] | 4.7 |  |  | 2.2 | 66 | 4.2
O=C1CCC(c2ccc(CCCN3CCN(c4ccccc4)CC3)cc2)N1 (centres unmarked) [Example 9, 5-[4-(3-(4-phenylpiperazin-1-yl)propyl)phenyl]pyrrolidin-2-one] | 4.5 |  |  | 2.4 | 250 | 9.5
COc1ccccc1N1CCN(CCCCc2ccc(C3CCC(=O)N3)cc2)CC1 (centres unmarked) [Example 7, 5-[4-(4-(4-(2-methoxyphenyl)piperazin-1-yl)butyl)phenyl]pyrrolidin-2-one] | 0.28 |  |  | 3.5 | 480 | 2.1
Cl.O=C1CCC(c2ccc(CCN3CCN(c4cccc(C(F)(F)F)c4)CC3)cc2)N1 (centres unmarked) [Example 2, 5-[4-(2-(4-(3-trifluoromethylphenyl)piperazin-1-yl)ethyl)phenyl]pyrrolidin-2-one hydrochloride] | 0.31 |  |  | 0.15 | 78 | 15
